This is an account of results in patent publication US20070149508A1, “Six membered heteroaromatic inhibitors targeting resistant kinase mutations” (TargeGen, Inc., priority 2005, published 2007).

In one assay the target is Abl kinase (Homo sapiens, UniProt P00519). The assay can be described thus: biochemical. The settings on record: Abl IC50 (nM), Abl kinase (Invitrogen, 20 ng/well), Abltide 100 μM, ATP 500 nM, 37° C. for 60 minutes, top concentration 10 uM.
The next assay deals with T1, Abl (T315I) (Homo sapiens, UniProt P00519, T315I).
T1 construct: purchased Upstate
The experiment in a line: Abl (T315I) Kinase Assay (KinaseGlo luminescent detection of residual ATP). The settings on record: Abl (T315I) IC50 (nM), Abl (T315I) (Upstate, 17 ng/well), Abltide 100 uM, ATP 500 nM, 60 minutes at 37° C. The assay is classed as biochemical. On the procedure:
The assay was performed similarly to the Abl kinase assay. Abl (T315I) (Upstate, 17 ng/well); Abltide substrate (100 uM) and ATP (500 nM) comprised the reaction mixture. Compound was similarly diluted, and the reaction plate was incubated for 60 minutes at 37° C.
Background: Kinase-Glo measures the ATP left after a reaction by luminescence.

Where a name gives a salt, the structure may show the parent alone.

The IC50 is the concentration at which inhibition is half-maximal. A high value points to a need for much substance. For the compound `O=S(=O)(NCCN1CCCC1)c1ccc(Nc2ncc(CCc3cc(O)ccc3Cl)cn2)cc1` [4-{5-[2-(2-Chloro-5-hydroxy-phenyl)-ethyl]-pyrimidin-2-ylamino}-N-(2-benzenesulfonamide hydrochloride], the values for the IC50 on Abl kinase and against Abl (T315I) were 5 nM and 805 nM, respectively.

On to `Cc1cccc(/C=C/c2cnc(Nc3ccc(S(=O)(=O)C4CCNCC4)cc3)nc2)c1` [5-(3-(methyl)styryl)-N-(4-(piperidin-4-ylsulfonyl)phenyl)pyrimidin-2-amine. TFA], for which the IC50 at Abl kinase was 51 nM; against Abl (T315I), 562 nM.

`O=S(=O)(NC1CCNCC1)c1ccc(Nc2ncc(/C=C/c3cccc4[nH]ncc34)cn2)cc1` [4-{5-[2-(1H-Indazol-4-yl)-vinyl]-pyrimidin-2-ylamino}-N-piperidin-4-yl-benzenesulfonamide hydrochloride]: the IC50 on Abl kinase was determined as 6.2 nM; against Abl (T315I), 176 nM.

With `NC1Cc2ccc(/C=C/c3cnc(Nc4ccc(S(=O)(=O)N5CCC(CO)CC5)cc4)nc3)cc2C1` (centres unmarked) [[1-(4-{5-[2-(2-Amino-indan-5-yl)-vinyl]-pyrimidin-2-ylamino}-benzenesulfonyl)-piperidin-4-yl]-methanol], the IC50 was 13700 nM against Abl kinase and 2790 nM against Abl (T315I).

For `C[C@H](N)C(=O)N1CCC(S(=O)(=O)c2ccc(Nc3ncc(/C=C/c4cccc5[nH]ccc45)cn3)cc2)CC1` [(S)-1-(4-(4-(5-((E)-2-(1H-indol-4-yl)vinyl)pyrimidin-2-ylamino)phenylsulfonyl)piperidin-1-yl)-2-aminopropan-1-one hydrochloride], the IC50 against Abl kinase was 43 nM; at Abl (T315I), 464 nM.

Take `O=S(=O)(c1ccc(Nc2ncc(/C=C/c3cccc4[nH]ccc34)cn2)cc1)C1CCN(CCO)CC1` [2-(4-(4-(5-((E)-2-(1H-indol-4-yl)vinyl)pyrimidin-2-ylamino)phenylsulfonyl)piperidin-1-yl)ethanol Hydrochloride]: the IC50 is 8.4 nM on Abl kinase and 202 nM on Abl (T315I).

For the compound `O=S(=O)(NC1CCNCC1)c1ccc(Nc2ncc(/C=C/c3cccc(O)c3)cn2)cc1` [4-{5-[2-(3-Hydroxy-phenyl)-vinyl]-pyrimidine-2-ylamino}-N-piperdin-4-yl-benzenesulfonamide Hydrochloride], the results for the IC50 against Abl kinase and against Abl (T315I) were 4.6 nM and 36 nM, respectively.

Consider `O=S(=O)(c1ccc(Nc2ncc(/C=C/c3ccc(O)c(O)c3)cn2)cc1)C1CCNCC1` [4-((E)-2-(2-(4-(piperidin-4-ylsulfonyl)phenylamino)pyrimidin-5-yl)vinyl)benzene-1,2-diol Hydrochloride], for which the IC50 against Abl kinase was 25 nM; on Abl (T315I), 40 nM.

On to `O=S(=O)(c1ccc(Nc2ccc(/C=C/c3cccc(O)c3)cn2)cc1)C1CCNCC1` [3-((E)-2-(6-(4-(piperidin-4-ylsulfonyl)phenylamino)pyridin-3-yl)vinyl)phenol hydrochloride], for which the results for the IC50 against Abl kinase and at Abl (T315I) were 32 nM and 192 nM, respectively.

Take `O=S(=O)(c1ccc(Nc2ncc(/C=C/c3ccc4[nH]ncc4c3)cn2)cc1)C1CCNCC1` [{5-[2-(1H-Indazol-5-yl)-vinyl]-pyrimidin-2-yl}-[4-(piperidine-4-sulfonyl)-phenyl]-amine]: the concentration for half-maximal inhibition (IC50) against Abl kinase turned out to be 163 nM; against Abl (T315I) it was 262 nM.

With `O=C(Nc1ccc(Cl)c(/C=C/c2cnc(Nc3ccc(S(=O)(=O)C4CCNCC4)cc3)nc2)c1)c1cccc(C(F)(F)F)c1` [N-[4-Chloro-3-(2-{2-[4-(piperidine-4-sulfonyl)-phenylamino]-pyrimidin-5-yl}-vinyl)-phenyl]-3-trifluoromethyl-benzamide], the values for the IC50 at Abl kinase and against Abl (T315I) were 12 nM and 2000 nM, respectively.

On to `O=C(Nc1cn2cc(/C=C/c3cnc(Nc4ccc(S(=O)(=O)C5CCNCC5)cc4)nc3)ccc2n1)C(F)(F)F` [2,2,2-Trifluoro-N-{6-[(E)-2-(2-{[4-(piperidin-4-ylsulfonyl)phenyl]amino}pyrimidin-5-yl)vinyl]imidazolo[1,2-a]pyridin-2-yl}acetamide trifluoroacetic acid salt], for which the IC50 at Abl kinase was found to be 1130 nM; at Abl (T315I), 475 nM.

Take `O=S(=O)(c1ccc(Nc2ncc(/C=C/c3cccc4[nH]ncc34)cn2)cc1)N(CCO)C1CCNCC1` [N-(2-hydroxyethyl)-4-({5-[(E)-2-(1H-indazol-4-yl)vinyl]pyrimidin-2-yl}amino)-N-piperidin-4-ylbenzenesulfonamide]: the IC50 was determined as 77 nM on Abl kinase and 251 nM at Abl (T315I).

In the case of `Nc1cc(C(F)(F)F)cc(/C=C/c2cnc(Nc3ccc(S(=O)(=O)C4CCNCC4)cc3)nc2)c1N` [3-((E)-2-(2-(4-(piperidin-4-ylsulfonyl)phenylamino)pyrimidin-5-yl)vinyl)-5-(trifluoromethyl)benzene 1,2-diamine.], the IC50 at Abl kinase stood at 210 nM; at Abl (T315I), 522 nM.

`O=S(=O)(c1ccc(Nc2ncc(/C=C/c3cccc(-c4cn[nH]c4)c3)cn2)cc1)C1CCNCC1` [5-(3-(1H-pyrazol-4-yl)styryl)-N-(4-(piperidin-4-ylsulfonyl)phenyl)-pyrimidin-2-amine Hydrochloride]: the IC50 on Abl kinase worked out at 1740 nM; on Abl (T315I), 1980 nM.

On to `O=S(=O)(c1ccc(Nc2ncc(/C=C/c3cccc4[nH]ccc34)cn2)cc1N1CCNCC1)N1CCNCC1` [5-[(E)-2-(1H-indol-4-yl)vinyl]-N-[3-piperazin-1-yl-4-(piperazin-1-ylsulfonyl)phenyl]pyrimidin-2-amine trifluoroacetic acid salt], for which the results for the IC50 against Abl kinase and on Abl (T315I) were 84 nM and 885 nM, respectively.

For `Nc1cn2cc(/C=C/c3cnc(Nc4ccc(S(=O)(=O)C5CCNCC5)cc4)nc3)ccc2n1` [6-[(E)-2-(2-{[4-(piperidin-4-ylsulfonyl)phenyl]amino}pyrimidin-5-yl)vinyl]imidazolo[1,2-a]pyridin-2-amine trifluoroacetic acid salt], the figures for the IC50 against Abl kinase and against Abl (T315I) were 469 nM and 136 nM, respectively.

Regarding `COc1cccc(/C=C/c2cnc(Nc3ccc(S(=O)(=O)C4CCNCC4)cc3)nc2)c1` [{5-[2-(3-Methoxy-phenyl)-vinyl]-pyrimidin-2-yl}-[4-piperidine-4-sulfonyl)-phenyl]-amine], the IC50 is 172 nM on Abl kinase and 664 nM on Abl (T315I).

Consider `Nc1nc2ccc(/C=C/c3cnc(Nc4ccc(S(=O)(=O)N5CCC(N)CC5)cc4)nc3)cc2s1` [6-{(E)-2-[2-({4-[(4-aminopiperidin-1-yl)sulfonyl]phenyl}amino)pyrimidin-5-yl]vinyl}-1,3-benzothiazol-2-amine], for which the IC50 at Abl kinase stood at 42 nM; at Abl (T315I) it was 21 nM.

On to `O=S(=O)(NCCO)c1ccc(Nc2ncc(/C=C/c3cccc4[nH]ncc34)cn2)cc1N1CCNCC1` [N-(2-hydroxyethyl)-4-({5-[(E)-2-(1H-indazol-4-yl)vinyl]pyrimidin-2-yl}amino)-2-piperazin-1-ylbenzenesulfonamide trifluoroacetic acid salt], for which the IC50 amounted to 30 nM against Abl kinase and 81 nM against Abl (T315I).

Consider `Nc1nc2ccc(/C=C/c3cnc(Nc4ccc(S(=O)(=O)N5CCCNCC5)cc4F)nc3)cc2s1` [(E)-6-(2-(2-(4-(1,4-diazepan-1-ylsulfonyl)-2-fluorophenylamino)pyrimidin-5-yl)vinyl)benzo[d]thiazol-2-amine hydrochloride], for which the values for the IC50 on Abl kinase and at Abl (T315I) were 10800 nM and 6980 nM, respectively.

With `C=Cc1cnc(Nc2ccc(S(=O)(=O)N3CCNCC3)c(N3CCNCC3)c2)nc1` [N-[3-piperazin-1-yl-4-(piperazin-1-ylsulfonyl)phenyl]-5-vinylpyrimidin-2-amine trifluoroacetic acid salt], the IC50 against Abl kinase worked out at 22200 nM; against Abl (T315I), 4640 nM.

Consider `O=S(=O)(NCCN1CCCC1)c1ccc(Nc2ncc(/C=C/c3cccc4[nH]ncc34)cn2)cc1` [4-{5-[2-(1H-Indazol-4-yl)-vinyl]-pyrimidin-2-ylamino}-N-(2-pyrrolidin-1-yl-ethyl)-benzenesulfonamide], for which the IC50 is 7.6 nM against Abl kinase and 133 nM against Abl (T315I).

With `O=S(=O)(c1ccc(Nc2ncc(/C=C/c3cccc(O)c3)cn2)cc1)N1CCNCC1` [3-(2-{2-[4-(Piperazine-1-sulfonyl)-phenylamino]-pyrimidin-5-yl}-vinyl)-phenol], the IC50 at Abl kinase turned out to be 4.1 nM; on Abl (T315I), 37 nM.

In the case of `O=C(Nc1nc2ccc(/C=C/c3cnc(Nc4ccc(S(=O)(=O)N5CCNCC5)cc4)nc3)cc2s1)c1cccc(C(F)(F)F)c1` [N-[6-(2-{2-[4-(Piperazine-1-sulfonyl)-phenylamino]-pyrimidin-5-yl]-vinyl)-benzothiazol-2-yI]-3-trifluoromethyl-benzamide], the IC50 at Abl kinase came out at 5110 nM; on Abl (T315I), 5600 nM.

Regarding `CN(C)CCN(C1CCNCC1)S(=O)(=O)c1ccc(Nc2ncc(/C=C/c3cccc4[nH]ccc34)cn2)cc1` [N-[2-(dimethylamino)ethyl]-4-({5-[(E)-2-(1H-indol-4-yl)vinyl]pyrimidin-2-yl}amino)-N-piperidin-4-ylbenzenesulfonamide], the IC50 is 25 nM on Abl kinase and 182 nM against Abl (T315I).

Regarding `O=S(=O)(c1ccc(Nc2ncc(/C=C/c3cc(C(F)(F)F)cc4[nH]nnc34)cn2)cc1)C1CCNCC1` [5-((E)-2-(6-(trifluoromethyl)-1H-benzo[d][1,2,3]triazol-4-yl)vinyl)-N-(4-(piperidin-4-ylsulfonyl)phenyl)pyrimidin-2-amine], the figures for the IC50 against Abl kinase and against Abl (T315I) were 130 nM and 70 nM, respectively.

In the case of `Nc1nc2ccc(/C=C/c3cnc(Nc4ccc(S(=O)(=O)C5CCNCC5)cc4)nc3)cc2[nH]1` [6-[(E)-2-(2-{[4-(piperidin-4-ylsulfonyl)phenyl]amino}pyrimidin-5-yl)vinyl]-1H-benzimidazol-2-amine], the values for the IC50 at Abl kinase and on Abl (T315I) were 192 nM and 169 nM, respectively.
